The source of these data is US8962660B2 (Bristol-Myers Squibb Company, priority 2013, dated 2015).

This experiment concerns the target T1, human GPR120 (Homo sapiens, UniProt Q5NUL3).
T1 construct: expressed in transfected cells; host or cells: CHOA12 cells
T1 sequence (Q5NUL3 1-361): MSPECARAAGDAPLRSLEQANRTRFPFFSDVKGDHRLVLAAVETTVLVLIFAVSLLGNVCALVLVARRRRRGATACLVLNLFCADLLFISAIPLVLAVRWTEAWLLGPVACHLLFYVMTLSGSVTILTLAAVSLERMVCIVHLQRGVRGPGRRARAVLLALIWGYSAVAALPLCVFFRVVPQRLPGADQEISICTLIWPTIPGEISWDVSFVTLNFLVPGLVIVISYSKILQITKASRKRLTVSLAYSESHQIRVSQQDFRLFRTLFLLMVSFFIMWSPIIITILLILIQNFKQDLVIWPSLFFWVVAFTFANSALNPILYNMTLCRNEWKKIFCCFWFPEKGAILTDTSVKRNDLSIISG
Description: GPR120 pERK AlphaScreen SureFire assay (human). Format: cell-based. The following applies: CHO cells stably transfected with short form of human GPR120. In outline: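 CHOA12 cells stably expressing short-form human GPR120, serum-starved 2 h, were stimulated 7 min at 37 °C with compound (33.33 μM–0.56 nM, 11-point). pERK read by AlphaScreen SureFire; activation normalized to 50 μM linolenic acid and DMSO blank, EC50 by 4-parameter fit.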
On the technique in general: In Alpha technology, singlet oxygen from a donor bead excites a nearby acceptor bead.

The EC50 is the concentration giving half of the maximal effect. Low values mean greater potency, high ones weaker potency. The compound `O=C(O)C1CC1CCC12CCC(c3cccc(Oc4ccccc4)c3)(CC1)OC2` (racemic) [Example 13, trans-2-(2-(1-(3-Phenoxyphenyl)-2-oxabicyclo[2.2.2]octan-4-yl)ethyl)cyclopropanecarboxylic acid] came in with an EC50 of 350 nM.

In the case of `O=C(O)COCCC12CCC(c3cccc(OCC4CCC4)c3)(CC1)OC2` [Example 51, 2-(2-(1-(3-(Cyclobutylmethoxy)phenyl)-2-oxabicyclo[2.2.2]octan-4-yl)ethoxy)acetic acid], the concentration for a half-maximal effect (EC50) stood at 1090 nM.

Turning to `O=C(O)[C@@H]1C[C@@H]1CCC12CCC(c3cccc(Oc4ccccc4)c3)(CC1)OC2` (racemic) [Example 32, Cis-2-(2-(1-(3-phenoxyphenyl)-2-oxabicyclo[2.2.2]octan-4-yl)ethyl)cyclopropanecarboxylic acid], the EC50 is 580 nM.

In turn, `Cc1cc(Oc2cc(F)cc(C34CCC(CCOCC(=O)O)(CC3)CO4)c2)ccc1F` [Example 81, 2-(2-(1-(3-fluoro-5-(4-fluoro-3-methylphenoxy)phenyl)-2-oxabicyclo [2.2.2]octan-4-yl)ethoxy) acetic acid] returned an EC50 of 520 nM.

On to `O=C(O)[C@H]1C[C@@H]1COCC12CCC(c3cccc(Oc4ccccc4)c3)(CC1)OC2` (single isomer, unassigned) [Example 99], for which a half-maximal effect (EC50) was put at 340 nM.

`O=C(O)COCCC12CCC(c3cccc(Oc4cccnc4)c3)(CC1)CO2` [Example 104] showed an EC50 of 7780 nM.

In the case of `O=C(O)COCCC12CCC(c3cccc(Oc4cc(F)cc(F)c4)c3)(CC1)OC2` [Example 76, 2-(2-(1-(3-(3,5-difluorophenoxy)phenyl)-2-oxabicyclo[2.2.2]octan-4-yl)ethoxy)acetic acid], the EC50 amounted to 420 nM.

Compound `O=C(O)CC1CC1CC12CCC(c3cccc(Oc4ccccc4)c3)(CC1)OC2` (stereo not drawn) [Example 16, 2-(2-((1-(3-Phenoxyphenyl)-2-oxabicyclo[2.2.2]octan-4-yl)methyl)cyclopropyl)acetic acid (trans)] came in with an EC50 of 160 nM.

Turning to `CCNC(=O)[C@@H]1C[C@H]1CCC12CCC(c3cccc(Oc4ccccc4)c3)(CC1)OC2` (single isomer, unassigned) [Example 69, N-Ethyl-2-(2-(1-(3-phenoxyphenyl)-2-oxabicyclo[2.2.2]octan-4-yl)ethyl) cyclopropanecarboxamide], a half-maximal response (EC50) required 4230 nM.

In turn, `O=C(O)COCCC12CCC(c3cccc(OC4CCCCC4)c3)(CC1)OC2` [Example 8, 2-(2-(1-(3-(Cyclohexyloxy)phenyl)-2-oxabicyclo[2.2.2]octan-4-yl)ethoxy)acetic acid] yielded an EC50 of 1050 nM.

`O=C(O)[C@@H]1C[C@H]1CCC12CCC(c3cccc(Oc4cc(F)cc(F)c4)c3)(CC1)OC2` [Example 72, (1R,2R)-2-(2-(1-(3-(3,5-difluorophenoxy)phenyl)-2-oxabicyclo[2.2.2]octan-4-yl)ethyl) cyclopropanecarboxylic acid] returned an EC50 of 490 nM.

`O=C(O)COCCC12CCC(c3cc(F)cc(Oc4ccc(F)c(F)c4)c3)(CC1)OC2` [Example 79, 2-(2-(1-(3-(3,4-difluorophenoxy)-5-fluorophenyl)-2-oxabicyclo [2.2.2]octan-4-yl)ethoxy) acetic acid] yielded a concentration giving a half-maximal response (EC50) of 550 nM.

Turning to `O=C(O)COCCC12CCC(c3cccc(OC4CCCCC4)c3)(CC1)CO2` [Example 111, 2-(2-(4-(3-(Cyclohexyloxy)phenyl)-2-oxabicyclo[2.2.2]octan-1-yl)ethoxy) acetic acid], it took 640 nM to reach a half-maximal effect (EC50).

As for `O=C(O)[C@@H]1C[C@H]1CCC12CCC(c3cccc(Oc4cccc(O)c4)c3)(CC1)OC2` (single isomer, unassigned) [Example 70, 2-(2-(1-(3-(3-Hydroxyphenoxy)phenyl)-2-oxabicyclo[2.2.2]octan-4-yl)ethyl) cyclopropanecarboxylic acid], the 50% effective concentration (EC50) came out at 970 nM.

For the compound `O=C(O)C[C@H]1C[C@@H]1CC12CCC(c3cccc(Oc4ccccc4)c3)(CC1)OC2` (single isomer, unassigned) [Example 17], the midpoint of the response, the EC50, lay at 260 nM.

With `O=C(O)[C@@H]1C[C@H]1CCC12CCC(c3cccc(Oc4cccc(F)c4)c3)(CC1)OC2` (single isomer, unassigned) [Example 65, 2-(2-(1-(3-(3-Fluorophenoxy)phenyl)-2-oxabicyclo[2.2.2]octan-4 yl)ethyl)cyclopropane carboxylic acid], a half-maximal effect (EC50) was put at 330 nM.

`O=C(O)C1CC1COC12CCC(c3cccc(Oc4ccccc4)c3)(CC1)OC2` (stereo not drawn) [Example 96, 2-(((1-(3-Phenoxyphenyl)-2-oxabicyclo[2.2.2]octan-4-yl)oxy)methyl) cyclopropanecarboxylic acid]: a half-maximal response (EC50) required 1680 nM.

As for `O=C(O)COCCC12CCC(c3cccc(Oc4cccc(F)c4)c3)(CC1)OC2` [Example 45, 2-(2-(1-(3-(3-fluorophenoxy)phenyl)-2-oxabicyclo[2.2.2]octan-4-yl)ethoxy) acetic acid], it took 280 nM to reach a half-maximal effect (EC50).

Consider `Cc1cccc(Oc2cccc(C34CCC(CCOCC(=O)O)(CC3)CO4)c2)c1` [Example 43, 2-(2-(1-(3-(m-tolyloxy)phenyl)-2-oxabicyclo [2.2.2]octan-4-yl)ethoxy)acetic acid], for which the EC50 came out at 550 nM.

With `O=C(O)/C=C\CCC12CCC(c3cccc(Oc4ccccc4)c3)(CC1)OC2` [Example 35, (Z)-5-(1-(3-Phenoxyphenyl)-2-oxabicyclo[2.2.2]octan-4-yl)pent-2-enoic acid], the concentration for a half-maximal effect (EC50) was 660 nM.

For `O=C(O)COCCC12CCC(c3cccc(Oc4ccc(F)c(F)c4)n3)(CC1)OC2` [Example 116, 2-(2-(1-(6-(3,4-Difluorophenoxy)pyridin-2-yl)-2-oxabicyclo[2.2.2]octan-4-yl)ethoxy) acetic acid], the response was half-maximal at 1150 nM (EC50).

`COc1cc(F)cc(Oc2cc(F)cc(C34CCC(CCOCC(=O)O)(CC3)CO4)c2)c1` [Example 84, 2-(2-(1-(3-fluoro-5-(3-fluoro-5-methoxyphenoxy)phenyl)-2-oxabicyclo [2.2.2]octan-4-yl)ethoxy) acetic acid] displayed an EC50 of 470 nM.

On to `CC(C)COc1cc(F)cc(C23CCC(CCOCC(=O)O)(CC2)CO3)c1` [Example 36, 2-(2-(1-(3-Fluoro-5-isobutoxyphenyl)-2-oxabicyclo[2.2.2]octan-4-yl)ethoxy)acetic acid], for which a half-maximal response (EC50) required 720 nM.

As to `O=C(O)[C@@H]1C[C@H]1CCC12CCC(c3cc(F)cc(Oc4cccc(F)c4)c3)(CC1)OC2` (single isomer, unassigned) [Example 64, 2-(2-(1-(3-Fluoro-5-(3-fluorophenoxy)phenyl)-2-oxabicyclo[2.2.2]octan-4-yl)ethyl) cyclopropanecarboxylic acid], the EC50 was found to be 260 nM. This EC50 lies about 2.8-fold lower than the previous one.

For `Cc1cc(Oc2cccc(C34CCC(CCOCC(=O)O)(CC3)OC4)c2)ccc1F` [Example 103], the response was half-maximal at 540 nM (EC50).

For the compound `Cc1ccc(Oc2cccc(C34CCC(CCOCC(=O)O)(CC3)OC4)c2)cc1F` [Example 101], the EC50 was 320 nM.

The compound `COc1cc(Oc2ccc(F)cc2)cc(C23CCC(CCOCC(=O)O)(CC2)CO3)c1` [Example 92, 2-(2-(1-(3-(4-fluorophenoxy)-5-methoxyphenyl)-2-oxabicyclo[2.2.2]octan-4-yl)ethoxy)acetic acid] yielded a half-maximal effective concentration (EC50) of 800 nM.

As for `OC[C@H](O)CCCC12CCC(c3cccc(Oc4ccccc4)c3)(CC1)OC2` (single isomer, unassigned) [Example 60, R-5-(1-(3-phenoxyphenyl)-2-oxabicyclo[2.2.2]octan-4-yl)pentane-1,2-diol], the EC50 came to 570 nM.

As to `COc1ccc(Oc2cccc(C34CCC(CC[C@@H]5C[C@H]5C(=O)O)(CC3)CO4)c2)cc1` [Example 71, (1R,2R)-2-(2-(1-(3-(4-methoxy-phenoxy)phenyl)-2-oxabicyclo[2.2.2]octan-4-yl)ethyl)cyclo-propane carboxylic acid], the 50% effective concentration (EC50) was found to be 1170 nM.

`O=C(O)[C@@H]1C[C@H]1CCC12CCC(c3cccc(Oc4ccc(O)cc4)c3)(CC1)OC2` [Example 74, (1R,2R)-2-(2-(1-(3-(4-hydroxy-phenoxy)phenyl)-2-oxabicyclo[2.2.2]octan-4-yl)ethyl)cyclo-propanecarboxylic acid] came in with a concentration giving a half-maximal response (EC50) of 2530 nM. This EC50 is about 2.2-fold higher than that of the compound before.

In turn, `O=C(O)COCCC12CCC(c3cccc(Oc4ccc(F)cc4)c3)(CC1)CO2` [Example 105] registered a concentration for a half-maximal effect (EC50) of 3440 nM.

For `O=C(O)COCCC12CCC(c3cccc(Oc4ccccn4)c3)(CC1)CO2` [Example 109, 2-(2-(4-(3-(Pyridin-2-yloxy)phenyl)-2-oxabicyclo[2.2.2]octan-1-yl)ethoxy)acetic acid], the concentration giving a half-maximal response (EC50) was found to be 5550 nM.

Compound `O=C(O)C1CC1COCC12CCC(c3cccc(Oc4ccccc4)c3)(CC1)OC2` (stereo not drawn) [Example 97, Trans-2-(((1-(3-phenoxyphenyl)-2-oxabicyclo[2.2.2]octan-4-yl)methoxy)methyl) cyclopropane carboxylic acid] gave an EC50 of 390 nM.

As to `O=C(O)C1CC1CCC12CCC(c3cc(F)cc(Oc4ccccc4)c3)(CC1)OC2` (single isomer, unassigned) [Example 63, 2-(2-(1-(3-Fluoro-5-phenoxyphenyl)-2-oxabicyclo[2.2.2]octan-4-yl)ethyl)cyclopropanecarboxylic acid], the EC50 was determined as 370 nM.

In turn, `OCC(O)CCCC12CCC(c3cccc(Oc4ccccc4)c3)(CC1)OC2` (racemic) [Example 58, 5-(1-(3-Phenoxyphenyl)-2-oxabicyclo[2.2.2]octan-4-yl)pentane-1,2-diol] had a concentration for a half-maximal effect (EC50) of 290 nM.

`Cc1ccc(Oc2cc(C34CCC(CCOCC(=O)O)(CC3)OC4)ccc2F)cc1F` [Example 112] displayed an EC50 of 270 nM.
